Experimental data reported in article PMC10780413, “Flavonoid Metabolites in Serum and Urine after the Ingestion of Selected Tropical Fruits” (Nutrients, 2024).
Read-outs that look alike come from different tables or passages of the source. Values belong to the molecule of their own block, whether it stands above or below them.

Key:
xanthine oxidase = system: xanthine oxidase; set-up: method as in PMID 11118813; settings: cited from earlier work
[1] = format: in vivo, human; settings: after guava, pineapple, pomelo
Description: Participants maintained a low-flavonoid diet (e.g., diet without vegetables, fruits, or chocolate) for two days and fasted for 8 h before the study to avoid any contribution from other foods containing flavonoids. Servings of fresh fruits of 200 g were given to the participants followed by 200 mL water. Beverages containing alcohol and caffeine were prohibited during the test period. Venous blood samples were collected before and 2, 4, 6, and 8 h after fruit ingestion. Serum was immediately prepared using centrifugation 233× g at 4 °C for 15 min, 200 mM ascorbic acid was added, and the samples were then stored at −20 °C until the analysis (within two weeks). Urine samples were collected at intervals of 0–4, 4–6, 6–8, 8–12, and 12–24 h in plastic bottles containing 70 mg of ascorbic acid per 100 mL of urine. The volume of urine sample was measured and then centrifuged at 233× g to remove the precipitate. […]
Flavonoid analysis was measured by a modified method of Biessaga [15] and Mullen et al. [16]. […]

[2] = Bioavailability estimated from total urinary excretion and flavonoid content in fruits; format: in vivo; settings: human, 200 g, 200 g edible part, fruit content from ref 10, read-out: Estimated bioavailability (total urinary amount as % of content in fruit)
Description: Hollman et al. reported the bioavailability of quercetin from apples and pure quercetin-3-rutinose was only 30% compared to onions. Here, we assumed the flavonoids recovering in urine had passed the blood compartment. […] In the two-hundred grams of edible part, guava and pineapple contained about 6900 μg and 850 μg of quercetin, respectively. The total amount of urinary quercetin accounted for 13% and 80% of the quercetin content in the respective fruits. […] It should be noted that, the bioavailability of flavonoids may be underestimated because the biliary excretion of flavonoids was not taken into account. Moreover, the urinary methyl-conjugated favonoids were not quantified in this study.

[3] = plasma; cited from earlier work
[4] = cited from earlier work
[5] = set-up: method as in PMID 25212140; settings: after ingestion of rooibos tea; cited from earlier work
[6] = Serum concentration of flavonoid metabolites after ingestion of 200 g fresh fruit (LC-MS/MS after enzyme hydrolysis); format: in vivo, human; settings: despite presence in the selected fruits
Text: Three groups of six healthy subjects (male and female) between 20 and 30 years of age, with a body mass index between 18 and 25, were recruited for this study. Each group of participant received one kind of fruit. They were not alcohol drinkers, smokers, drug users, nor pregnant. They had not taken any medications for at least one month prior to the experiment. All participants underwent health checks for their hematological and biochemical profiles. There was no clinical presentation of gastrointestinal diseases (peptic ulcer), kidney diseases, liver diseases or jaundice, heart diseases, asthma, or diabetes mellitus. Levels of blood glucose before and 4 h after fruit ingestion were monitored in all subjects. […]
Participants maintained a low-flavonoid diet (e.g., diet without vegetables, fruits, or chocolate) for two days and fasted for 8 h before the study to avoid any contribution from other foods containing flavonoids. […] The volume of urine sample was measured and then centrifuged at 233× g to remove the precipitate. […]
The conjugated metabolites of flavonoids, glucuronic acid, and sulfate conjugates were determined in the serum and urine after hydrolyzing with β-glucuronidase (EC 3.2.1.31, bovine liver type B-I, Sigma, St Louis, MO, USA) and aryl sulfatase (EC 3.1.6.1, Merk, Darmstadt, Germany), respectively, at 37 °C for 16 h. […]

[7] = set-up: method as in PMID 14709621; settings: in vitro study; cited from earlier work
[8] = system: LPS-induced pulmonary injury; set-up: method as in PMID 37335159; settings: in vitro and in vivo models; cited from earlier work
[9] = set-up: method as in PMID 11361045; settings: cited from earlier work

Structure (SMILES): O=C(O)[C@H]1O[C@@H](Oc2ccc(-c3oc4cc(O)cc(O)c4c(=O)c3O)cc2O)[C@H](O)[C@@H](O)[C@@H]1O [4′-quercetin glucuronide]
- Inhibitory effect on xanthine oxidase (xanthine oxidase): potent inhibitory effect

- Conjugated forms recovered in urine [1]: found in both conjugated metabolites
- bioavailability ([2]; urine, oral, from pineapple): 10%
- bioavailability ([2]; urine, oral, from pomelo): 1%
Structure (SMILES): O=c1c(O)c(-c2ccc(O)cc2)oc2cc(O)cc(O)c12 [Kaempferol, kaempferol]
- Share that is glucuronide in the 3′-position [3]: 20–40%

Structure (SMILES): O=C(O)[C@H]1O[C@@H](Oc2cc(-c3oc4cc(O)cc(O)c4c(=O)c3O)ccc2O)[C@H](O)[C@@H](O)[C@@H]1O [3′-quercetin glucuronide]
- Inhibitory effect on xanthine oxidase (xanthine oxidase): potent inhibitory effect

Structure (SMILES): C[C@@H]1O[C@@H](OC[C@H]2O[C@@H](Oc3c(-c4ccc(O)c(O)c4)oc4cc(O)cc(O)c4c3=O)[C@H](O)[C@@H](O)[C@@H]2O)[C@H](O)[C@H](O)[C@H]1O [quercetin-3-rutinose, reference compound]
- Bioavailability of quercetin compared to onions ([4]; in vivo): 30%

- bioavailability ([2]; urine, oral, from guava): 5%
- bioavailability ([2]; urine, oral, from pomelo): 5%
Structure (SMILES): O=c1cc(-c2ccc(O)c(O)c2)oc2cc(O)cc(O)c12 [Luteolin, luteolin]
- Tmax [5]: 1.5 to 3 h

- Detection in serum or urine after fruit ingestion [6]: did not detect
Structure (SMILES): O=c1cc(-c2ccc(O)cc2)oc2cc(O)cc(O)c12 [apigenin]
- Phase I metabolism, major metabolite [7]: forms luteolin as a major metabolite

- Detection in serum or urine after fruit ingestion [6]: did not detect
Structure (SMILES): COc1ccc([C@@H]2CC(=O)c3c(O)cc(O)cc3O2)cc1O [hesperetin]

Structure (SMILES): O=C(O)[C@H]1O[C@@H](Oc2c(-c3ccc(O)c(O)c3)oc3cc(O)cc(O)c3c2=O)[C@H](O)[C@@H](O)[C@@H]1O [quercetin-3-glucuronide]
- Inhibitory effect on xanthine oxidase (xanthine oxidase): not active
- Activity in LPS-induced pulmonary injury [8]: exerted antioxidant and anti-inflammatory activity

- Conjugated forms recovered in urine [1]: found in both conjugated metabolites
- bioavailability ([2]; urine, oral, from guava): 13%
- bioavailability ([2]; urine, oral, from pineapple): 80%
Structure (SMILES): O=c1c(O)c(-c2ccc(O)c(O)c2)oc2cc(O)cc(O)c12 [Quercetin, quercetin]
- Tmax of quercetin ([9]; after ingesting buckwheat tea): 4.3 h
- Tmax of quercetin ([9]; after ingesting quercetin-3-rutioside): 6.9 h
- Tmax of quercetin ([9]; after single ingestion of onion): 0.7 h
- Tmax of quercetin ([9]; after single ingestion of quercetin-4’-glucoside): 0.7 h
- Bioavailability of quercetin compared to onions ([4]; from apples): 30%
- Share that is glucuronide in the 3′-position [3]: 20–40%

Structure (SMILES): O=c1c(O)c(-c2cc(O)c(O)c(O)c2)oc2cc(O)cc(O)c12 [Myricetin, myricetin]
- Conjugated forms recovered in urine [1]: only detected in sulfate form
- bioavailability ([2]; in vivo, from guava): 5%
- bioavailability ([2]; in vivo, from pineapple): 10%
- Share that is glucuronide in the 3′-position [3]: 20–40%
